Legend:
[1] = biological target: T1, aldosterone synthase (CYP11B2) (Homo sapiens, UniProt P19099); assay: in vitro aldosterone synthase inhibition: aldosterone production in Ang II-stimulated NCI-H295R cells; format: cell-based; details: Table 1, read-out: AS IC50
T1 construct: host or cells: NCI-H295R human adrenocortical carcinoma cells
T1 sequence (P19099 25-503): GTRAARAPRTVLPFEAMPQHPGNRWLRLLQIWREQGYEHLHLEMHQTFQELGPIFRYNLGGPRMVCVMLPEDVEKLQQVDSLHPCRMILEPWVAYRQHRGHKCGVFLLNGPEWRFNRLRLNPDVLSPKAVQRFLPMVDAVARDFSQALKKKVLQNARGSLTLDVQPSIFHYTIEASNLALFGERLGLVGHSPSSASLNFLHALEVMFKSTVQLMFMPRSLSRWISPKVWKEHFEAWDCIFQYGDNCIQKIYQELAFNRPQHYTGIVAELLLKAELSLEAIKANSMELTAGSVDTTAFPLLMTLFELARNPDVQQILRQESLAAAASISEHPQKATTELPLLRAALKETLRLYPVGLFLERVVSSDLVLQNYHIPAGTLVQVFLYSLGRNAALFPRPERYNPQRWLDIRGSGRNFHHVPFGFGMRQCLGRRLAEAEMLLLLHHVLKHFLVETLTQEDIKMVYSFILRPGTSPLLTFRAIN
From the text: Human adrenocortical carcinoma NCl-H295R cell line is obtained from American Type Culture Collection (Manassas, Va.). Insulin/transferrin/selenium (ITS)-A supplement (100×), DMEM/F-12, antibiotic/antimycotic (100×), and fetal calf serum (FCS) are purchased from Gibco (Grand Island, N.Y.). Anti-mouse PVT scintillation proximity assay (SPA) beads and NBS 96-well plates are obtained from Amersham (Piscataway, N.J.) and Corning (Acton, Mass.), respectively. Solid black 96-well flat bottom plates are purchased from Costar (Corning, N.Y.). Aldosterone and angiotensin (Ang II) are purchased from Sigma (St. Louis, Mo.). D-[1,2,6,7-^3H(N)]aldosterone was acquired from PerkinElmer (Boston, Mass.). Nu-serum was a product of BD Biosciences (Franklin Lakes, N.J.). The NADPH regenerating system, dibenzylfluorescein (DBF), and human aromatase supersomes® are obtained from Gentest (Woburn, Mass.).
For in vitro measurement of aldosterone activity, human adrenocortical carcinoma NCl-H295R cells are seeded in NBS 96-well plates at a density of 25,000 cells/well in 100 μl of a growth medium containing DMEM/F12 supplemented with 10% FCS, 2.5% Nu-serum, 1 μg ITS/ml, and 1× antibiotic/antimycotic. The medium is changed after culturing for 3 days at 37° C. under an atmosphere of 5% CO2/95% air. On the following day, cells are rinsed with 100 μl of DMEM/F12 and incubated with 100 μl of treatment medium containing 1 μM Ang II and a compound at different concentrations in quadruplicate wells at 37° C. for 24 hr. At the end of incubation, 50 μl of medium is withdrawn from each well for measurement of aldosterone production by an RIA using mouse anti-aldosterone monoclonal antibodies.
Measurement of aldosterone activity can also be performed using a 96-well plate format. Each test sample is incubated with 0.02 μCi of D-[1,2,6,7-^3H(N)]aldosterone and 0.3 μg of anti-aldosterone antibody in phosphate-buffered saline (PBS) containing 0.1% Triton X-100, 0.1% bovine serum albumin; and 12% glycerol in a total volume of 200 μl at room temperature for 1 hr. Anti-mouse PVT SPA beads (50 μl) are then added to each well and incubated overnight at room temperature prior to counting in a Microbeta plate counter. The amount of aldosterone in each sample is calculated by comparing with a standard curve generated using known quantities of the hormone.
Full concentration-response curves of the test compound are performed at least 3 times. The IC50 values are derived using a non-linear least squares curve-fitting program from Microsoft XLfit.

[2] = biological target: T2, CYP11B1 (steroid 11β-hydroxylase) (Homo sapiens, UniProt P15538); assay: in vitro CYP11B1 inhibition: steroid release from NCI-H295R cells; format: cell-based; details: Table 1
T2 construct: Thus, the NCl-H295R cells have CYP11B1 (steroid 11 p-hydroxylase); host or cells: NCI-H295R human adrenocortical carcinoma cells
T2 sequence (P15538 25-503): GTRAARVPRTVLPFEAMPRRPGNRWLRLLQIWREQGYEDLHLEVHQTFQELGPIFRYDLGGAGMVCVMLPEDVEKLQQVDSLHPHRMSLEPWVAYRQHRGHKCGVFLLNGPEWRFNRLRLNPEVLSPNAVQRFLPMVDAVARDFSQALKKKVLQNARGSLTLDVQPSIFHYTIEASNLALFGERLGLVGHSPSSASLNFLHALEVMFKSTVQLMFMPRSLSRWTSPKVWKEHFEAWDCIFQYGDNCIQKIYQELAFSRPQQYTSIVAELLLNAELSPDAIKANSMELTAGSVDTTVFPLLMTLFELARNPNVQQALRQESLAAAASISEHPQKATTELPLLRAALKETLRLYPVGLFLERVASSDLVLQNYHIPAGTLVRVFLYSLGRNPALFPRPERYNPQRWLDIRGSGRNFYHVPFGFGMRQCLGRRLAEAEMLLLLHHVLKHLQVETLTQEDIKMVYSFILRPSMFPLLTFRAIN
From the text: The in vitro inhibitory activities for CYP11B1 can be determined by the following assay.
The cell line NCl-H295R was originally isolated from an adrenocortical carcinoma and has been characterized in the literature through the stimulable secretion of steroid hormones and the presence of the enymes essential for steroidogenesis. Thus, the NCl-H295R cells have CYP11B1 (steroid 11 p-hydroxylase). The cells show the physiological property of zonally undifferentiated human foetal adrenocortical cells which, however, have the capacity to produce the steroid hormones which are formed in the three, phenotypically distinguishable zones in the adult adrenal cortex. […]
The excretion of aldosterone, cortisol, corticosterone and estradiol/estrone into the culture medium can be detected and quantified by commercially available, specific monoclonal antibodies in radioimmunoassays in accordance with the manufacturer's instructions.
Inhibition of the release of certain steroids can be used as a measure of the respective enzyme inhibition by the added test compounds. The dose-dependent inhibition of enzymic activity by a compound is calculated by means of an inhibition plot which is characterized by an IC50.
The IC50 values for active test compounds are ascertained by a simple linear regression analysis in order to construct inhibition plots without data weighting. The inhibition plot is calculated by fting a 4-parameter logistic function to the raw data points using the least squares method. The equation of the 4-parameter logistic function is calculated as follows: Y=(d−a)/((1+(x/c)b))+a I where: a=minimum data level b=gradient I c=ICED d=maximum data level x=inhibitor concentration.

| SMILES | IC50 [1] [nM] | IC50 [2] [nM] |
| --- | --- | --- |
| COC(=O)c1cncn1C1CCc2ccccc2C1 (centres unmarked) [LDI154, 3-(1,2,3,4-Tetrahydro-naphthalen-2-yl)-3H-imidazole-4-carboxylic acid methyl ester] | 6 | 42 |
| Cc1noc(-c2cncn2C2Cc3ccccc3C2)n1 [LDK260, 5-(3-Indan-2-yl-3H-imidazol-4-yl)-3-methyl-[1,2,4]oxadiazole] | 95 | 725 |
| ON=Cc1cncn1C1Cc2ccccc2C1 [LDK909, 3-Indan-2-yl-3H-imidazole-4-carbaldehyde oxime] | 378 | – |

The next lines start with results.

| IC50 [1] [nM] | SMILES | IC50 [2] [nM] |
| --- | --- | --- |
| 9 | COC(=O)c1cn(C2Cc3ccccc3C2)cn1 [LDG688, 1-Indan-2-yl-1H-imidazole-4-carboxylic acid methyl ester] | 107 |
| 214 | COC(=O)c1cncn1C1COc2ccccc2OC1 [LDS237, 3-(3,4-Dihydro-2H-benzo[b][1,4]dioxepin-3-yl)-3H-imidazole-4-carboxylic acid methyl ester] | – |

— patent US20100041722A1, “ORGANIC COMPOUNDS” (priority 2006, published 2010)
